Test results published in patent US7915022B2, “Carbonyl reductase, gene thereof and method of using the same” (priority 2004, dated 2011).

Legend:
[1] = system: polypeptide consisting of the amino acid sequence shown in SEQ ID NO: 3 (carbonyl reductase), cell-free extract of E. coli HB101 (pNTOM3); test: Substrate specificity of polypeptide produced by transformant E. coli HB101 (pNTOM3); format: biochemical, Ogataea minuta var. minuta NBRC0975; conditions: 1 mM substrate, 0.25 mM NADPH, pH 6.5, 30° C., 1 min; relative to activity on CBPB as 100%
Description: (§1) In 100 mM phosphate buffer (pH 6.5) containing 0.33% (v/v) dimethyl sulfoxide were dissolved a carbonyl compound to be a substrate to a final concentration of 1 mM, and a coenzyme NADPH to a final concentration of 0.25 mM, respectively. Thereto was added a cell-free extract of E. coli HB101 (pNTOM4) or E. coli HB101 (pNTOM3) prepared in Example 7, and the mixture was reacted at 30° C. for 1 min. The reduction activity on each carbonyl compound was calculated from the rate of decrease in the absorbance of the reaction mixture at a wavelength of 340 nm, and shown in Table 2 as a value relative to the activity on (3S)-1-chloro-3-tert-butoxycarbonylamino-4-phenyl-2-butanone as 100%.

[2] = system: polypeptide consisting of the amino acid sequence shown in SEQ ID NO: 4 (carbonyl reductase), cell-free extract of E. coli HB101 (pNTOM4); test: Substrate specificity of polypeptide produced by transformant E. coli HB101 (pNTOM4); format: biochemical, Ogataea minuta var. minuta NBRC0975; conditions: 1 mM substrate, 0.25 mM NADPH, pH 6.5, 30° C., 1 min; relative to activity on CBPB as 100%
Description: as §1

In the case of O=C(CO)c1ccccc1 [2-hydroxyacetophenone], the “relative activity (%) E. coli HB101 (pNTOM3)” value [1] is reported as 32% and the “relative activity (%) E. coli HB101 (pNTOM4)” value [2] is reported as 1%.
